Read-outs that look alike come from different tables or passages of the source.
Legend:
[1] = Anti-inflammatory effect (carrageenin edema of hind paw); format: in vivo, Wistar-strain male rats; design: anti-inflammatory effect (inhibition percentage of carrageenin edema): scale not given here; settings: for inhibition in vivo at 10 mg/kg / inhibition in vivo at 20 mg/kg / inhibition in vivo at 50 mg/kg / inhibition in vivo at 100 mg/kg: Rattus norvegicus, po, read-out: anti-inflammatory effect (inhibition percentage of carrageenin edema)
Protocol: 2. Anti-inflammatory effect
A group of five Wistar-strain male rats (100-150 g) were orally administered with each test compound suspended in 0.5 % tragacanth-saline solution. After 30 minutes 0.5 %-1.0 % carrageenin suspended in the water for injection was injected subcutaneously to a hind paw. After 3 hours the carrageenin edema was measured by volume and the inhibition percentage was determined with respect to the results for the control animals. The inhibition percentages were shown with the notations as follows: […]

[2] = Analgetic effect (acetic acid writhing syndrome); format: in vivo, dd-strain male mice; settings: orally, mice; for ED50: Mus musculus, po, acetic acid writhing
Protocol: Each test compound suspended in 0.5 % tragacanth-saline solution was orally administered to dd-strain male mice (18-20 g). After one hour 0.6% acetic acid solution was intraperitoneally injected in a volume of 0.1 ml/10 g.

[3] = system: dd-strain male mice; settings: 72 hours
Protocol: The lethal dose was estimated from the death of animals 72 hours after administration.

[4] = dose 10 mg/kg, orally, rats, 3 hours
[5] = dose 50 mg/kg, orally, rats, 3 hours

Row | SMILES | inhibition in vivo at 10 mg/kg [1, 4] [%] | inhibition in vivo at 20 mg/kg ([1]; orally, rats, 3 hours) [%] | inhibition in vivo at 50 mg/kg [1, 5] [%] | inhibition in vivo at 100 mg/kg ([1]; orally, rats, 3 hours) [%] | ED50 [2] [mg/kg] | acute toxicity (lethal dose) ([3]; p.o.) [mg/kg] | acute toxicity (lethal dose) ([3]; i.p.) [mg/kg] | anti-inflammatory effect (inhibition percentage of carrageenin edema) [1, 5] | analgetic effect ED50, 95% C.L. ([2]; only the 95% confidential limits are printed) [mg/kg] | inhibition in vivo at 10 mg/kg ([1]; 3 h) [%] | inhibition in vivo at 50 mg/kg ([1]; 3 h) [%]
1 | Cn1c(=O)c2cccnc2n(-c2cccc([N+](=O)[O-])c2)c1=O [Compound 2, 1-(m-nitrophenyl)-3-methylpyrido[2,3-d]pyrimidine-2,4(1H,3H)-dione] | 46 to 60 | 46 to 60 | > 61 | > 61 | 0.175 | – | – | – | – | – | –
2 | C=CCn1c(=O)c2cccnc2n(-c2cccc([N+](=O)[O-])c2)c1=O [Compound 9, 1-(m-nitrophenyl)-3-allylpyrido[2,3-d]pyrimidine-2,4(1H,3H)-dione] | > 61 | 46 to 60 | > 61 | > 61 | 2.6 | > 2000 | – | – | – | – | –
3 | CC(C)n1c(=O)c2cccnc2n(-c2cccc([N+](=O)[O-])c2)c1=O [Compound 5] | 46 to 60 | 46 to 60 | 46 to 60 | > 61 | 2.15 | – | > 1000 | – | – | – | –
4 | O=c1c2cccnc2n(-c2cccc([N+](=O)[O-])c2)c(=O)n1CCc1ccccc1 [Compound 31] | – | – | – | < 15 | > 100 | > 2000 | > 1000 | – | – | – | –
5 | O=c1c2cccnc2n(-c2cccc([N+](=O)[O-])c2)c(=O)n1CC(F)(F)F [Compound 16, 1-(m-nitrophenyl)-3-(2,2,2-trifluoroethyl)pyrido[2,3-d]pyrimidine-2,4(1H,3H)-dione] | 46 to 60 | > 61 | 46 to 60 | 46 to 60 | 1.28 | > 2000 | > 1000 | – | – | – | –
6 | O=c1c2cccnc2n(-c2cccc([N+](=O)[O-])c2)c(=O)n1Cc1ccccc1 [O --Ch2] | 31 to 45 | 46 to 60 | 46 to 60 | > 61 | 1.7 | – | – | – | – | – | –
7 | Cn1c(=O)c2cccnc2n(-c2cccc(Cl)c2)c1=O [--CH3, reference compound] | 31 to 45 | 46 to 60 | 46 to 60 | 46 to 60 | 7.1 | > 1000 | > 1000 | – | – | – | –
8 | CC(C)Cn1c(=O)c2cccnc2n(-c2cccc([N+](=O)[O-])c2)c1=O [Compound 7] | – | 31 to 45 | 31 to 45 | 31 to 45 | 3.1 | > 2000 | 1000 | – | – | – | –
9 | CCn1c(=O)c2cccnc2n(-c2cccc(C(F)(F)F)c2)c1=O [--C2 H5, reference compound] | 46 to 60 | 46 to 60 | > 61 | > 61 | 10 | 665 | 600 | – | – | – | –
10 | CCCCC1C(=O)N(c2ccccc2)N(c2ccccc2)C1=O [phenylbutazone, reference compound] | < 15 | – | 31 to 45 | – | 290 | – | – | – | – | – | –
11 | C#CCn1c(=O)c2cccnc2n(-c2cccc([N+](=O)[O-])c2)c1=O [Compound 12] | 46 to 60 | 46 to 60 | 46 to 60 | > 61 | 1.15 | > 2000 | > 1000 | – | – | – | –
12 | CCCn1c(=O)c2cccnc2n(-c2cccc([N+](=O)[O-])c2)c1=S [Compound 35] | 16 to 30 | – | 16 to 30 | – | ~1000 | > 2000 | > 1000 | – | – | – | –
13 | O=c1c2cccnc2n(-c2cccc([N+](=O)[O-])c2)c(=O)n1CCCO [Compound 19] | 31 to 45 | 46 to 60 | 46 to 60 | > 61 | ~1 | > 2000 | > 1000 | – | – | – | –
14 | O=C(Cn1c(=O)c2cccnc2n(-c2cccc([N+](=O)[O-])c2)c1=O)c1ccc(Cl)cc1 [O --CH2 CO] | – | – | – | < 15 | > 100 | > 2000 | > 1000 | – | – | – | –
15 | O=c1c2cccnc2n(-c2cccc([N+](=O)[O-])c2)c(=O)n1CC1CC1 [O --CH2] | > 61 | > 61 | > 61 | > 61 | 0.12 | – | – | – | – | – | –
16 | CCOC(=O)Cn1c(=O)c2cccnc2n(-c2cccc([N+](=O)[O-])c2)c1=O [Compound 27] | 31 to 45 | 31 to 45 | 46 to 60 | 46 to 60 | 45 | > 2000 | 1000 | – | – | – | –
17 | O=c1c2cccnc2n(-c2cccc([N+](=O)[O-])c2)c(=O)n1CCO [Compound 18, 1-(m-nitrophenyl)-3-(2-hydroxyethyl)pyrido[2,3-d] pyrimidine-2,4(1H,3H)-dione] | – | – | 31 to 45 | 31 to 45 | 0.42 | > 2000 | > 1000 | – | – | – | –
18 | CCCn1c(=O)c2cccnc2n(-c2cccc([N+](=O)[O-])c2)c1=O [Compound 4] | 46 to 60 | 46 to 60 | 31 to 45 | 46 to 60 | 2.6 | > 2000 | 1000 | – | – | – | –
19 | CC(C)=CCn1c(=O)c2cccnc2n(-c2cccc([N+](=O)[O-])c2)c1=O [Compound 10] | 31 to 45 | 31 to 45 | > 61 | 46 to 60 | 0.43 | > 2000 | – | – | – | – | –
20 | O=c1c2cccnc2n(-c2cccc([N+](=O)[O-])c2)c(=S)n1CC(F)(F)F [Compound 39] | > 61 | – | 46 to 60 | – | 0.23 | > 2000 | > 1000 | – | – | – | –
21 | Cn1c(=O)c2cccnc2n(-c2cccc([N+](=O)[O-])c2)c1=S [Compound 33, 1-(m-nitrophenyl)-3-methyl-2-thio-4-oxo-1,2,3,4-tetrahydropyrido[2,3-d]pyrimidine] | 46 to 60 | – | – | – | – | > 2000 | > 1000 | + ++ | 0.23 to 1.55 | – | –
22 | CC(=O)OCCn1c(=O)c2cccnc2n(-c2cccc([N+](=O)[O-])c2)c1=O [Compound 21] | – | – | 16 to 30 | 31 to 45 | 0.16 | 2000 | > 1000 | – | – | – | –
23 | O=c1c2cccnc2n(-c2cccc([N+](=O)[O-])c2)c(=O)n1CCCl [Compound 14] | 46 to 60 | > 61 | 46 to 60 | > 61 | 0.19 | > 2000 | > 1000 | – | – | – | –
24 | CCn1c(=O)c2cccnc2n(-c2cccc([N+](=O)[O-])c2)c1=O [Compound 3, 1-(m-nitrophenyl)-3-ethylpyrido[2,3-d]pyrimidine-2,4(1H,3H)-dione] | > 61 | > 61 | > 61 | – | 0.113 | – | – | – | – | – | –
25 | CCCn1c(=O)c2cccnc2n(-c2cccc(Br)c2)c1=O [--CH2 CH2 CH3, reference compound] | 46 to 60 | 31 to 45 | 46 to 60 | > 61 | 20 | – | > 1000 | – | – | – | –
26 | CCn1c(=O)c2cccnc2n(-c2cccc([N+](=O)[O-])c2)c1=S [Compound 34] | 46 to 60 | – | 46 to 60 | – | ~0.2 | > 2000 | > 1000 | – | – | – | –
27 | CCOCCn1c(=O)c2cccnc2n(-c2cccc([N+](=O)[O-])c2)c1=O [Compound 23] | 31 to 45 | 46 to 60 | 46 to 60 | 31 to 45 | 0.168 | – | > 1000 | – | – | – | –
28 | CN1C(=O)CN=C(c2ccccc2)c2cc(Cl)ccc21 [diazepam, reference compound] | – | – | – | – | – | – | – | – | – | < 15 | 16 to 30
